# Values of other authors as cited in US8735408B2, “Solid forms of 3-(4-(aminomethyl)-1-(5-methyl-7H-pyrrolo[2,3-d]pyrimidin-4-yl)piperidine-4-carboxamido)phenyl dimethylcarbamate” (Lexicon Pharmaceuticals, Inc., priority 2010, dated 2014).
# Conditions: models of ophthalmic disease; see US-2009-0264450-A1
compound,measurement,value
"Cc1c[nH]c2ncnc(N3CCC(CN)(C(=O)Nc4cccc(OC(=O)N(C)C)c4)CC3)c12 [3-(4-(aminomethyl)-1-(5-methyl-7H-pyrrolo[2,3-d]pyrimidin-4-yl)piperidine-4-carboxamido)phenyl dimethylcarbamate]",effect on intraocular pressure,decrease intraocular pressure
